≈ marks a conversion by molar mass, not a printed value. Read-outs that look alike come from different tables or passages of the source.
Columns and labels:
[1] = tested on: Caco-2 human colon carcinoma cell lines; settings: cited from earlier work
[2] = tested on: HIV-1IIIB laboratory-adapted strain; assay: Anti-HIV activity test: prevention of HIV-1 cytopathic effect in MT-4 cells (MTT); assay type: cell-based, Human immunodeficiency virus type 1; settings: for IC50: Human immunodeficiency virus 1, MT4, read-out: IC50 (50% antiviral effect concentration); for EmaxAV (maximum antiviral effect %): inhibition of viral-induced cytopathic effect, HIV-1IIIB in MT-4 cells; for SI (selectivity index): ratio of CC50 to IC50, MT-4 cells
Experimental: Human immunodeficiency virus type 1 (HIV-1) IIIB (also referred to as HTLV-IIIB) was obtained through the NIH HIV Reagent Program, Division of AIDS, NIAID, NIH: Human Immunodeficiency Virus-1 IIIB, ARP-398, contributed by Dr. Robert Gallo. The effects of the test compounds in preventing the cytopathic effect resulting from HIV-1 replication were evaluated by the MTT colorimetric assay described above.
The laboratory-adapted strain of human immunodeficiency virus type 1 (HIV-1IIIB) obtained from the National Institutes of Health HIV Reagent Program was used in this experiment. A total of 50 µl of different concentrations ([…]) of the test compounds were seeded into 96-well flat-bottomed microtiter culture plates containing HIV-infected MT-4 cells.

[3] = tested on: human T-lymphocytic MT-4 cells; assay type: cell-based; settings: for CC50 (50% cytotoxic concentration): MT-4 cells, MTT, mean ± S.E.M; for MNTC (maximum nontoxic concentration): human
Experimental: In this study, human T-lymphocytic MT-4 cells (ARP-120) were obtained through the National Institute of Health (NIH) HIV Reagent Program, Division of AIDS, National Institute of Allergy, and Infectious Diseases (NIAID), NIH: MT-4 Cells, ARP-120, contributed by Dr. Douglas Richman. The cytotoxicity test was conducted to evaluate the plant extracts' safety by measuring cell death caused by the plant extracts. The assay was conducted using the MTT colorimetric assay as described previously.
Four solvent fractions of twigs of C. dichogamus were examined for their ability to inhibit HIV-1 replication. In addition, the in vitro toxicity of these extracts to human T-lymphocytic MT-4 cells was investigated by MTT assay. […] The average absorbance value from three replicate determinations was used to express the viability of the cells as a percentage of negative controls, and the CC50 for each plant extract was determined graphically by plotting the % growth inhibition (Emaxc) against the plant extract concentration.

[4] = tested on: HIV; design: method as in PMID 8176401; settings: cited from earlier work
[5] = tested on: HIV; settings: cell-based in vitro assay; literature report, no reference given; cited from earlier work
[6] = tested on: HIV; design: method as in PMID 14980692; settings: cited from earlier work
[7] = tested on: MCF-7; design: method as in PMID 23103294; settings: MCF-7, MTT method; read-out: IC50 (cytotoxicity); cited from earlier work
[8] = tested on: HL-60; design: method as in PMID 23103294; settings: HL-60, MTT method; read-out: IC50 (cytotoxicity); cited from earlier work
[9] = tested on: SMMC-7721; design: method as in PMID 23103294; settings: SMMC-7721, MTT method; read-out: IC50 (cytotoxicity); cited from earlier work
[10] = tested on: A-549; design: method as in PMID 23103294; settings: A-549, MTT method; read-out: IC50 (cytotoxicity); cited from earlier work
[11] = tested on: SW-480; design: method as in PMID 23103294; settings: SW-480, MTT method; read-out: IC50 (cytotoxicity); cited from earlier work
[12] = HIV-1IIIB-infected MT-4 cells, MTT, mean ± S.E.M

10-epi-manninsigin D
decrease of viability ([1]; Caco-2, at a concentration of 100 mM): 43%

Nc1nc(NC2CC2)c2ncn([C@H]3C=C[C@@H](CO)C3)c2n1 [ABC, abacavir]
IC50 [2, 12]: 0.05 ± 0.031 µg/mL (≈ 0.175 µM) | EmaxAV (maximum antiviral effect %) ([2]; mean ± S.E.M): 58.67 ± 0.43% | SI (selectivity index) [2]: 5.0 | CC50 (50% cytotoxic concentration) [3]: 0.26 ± 0.00 µg/mL (≈ 0.908 µM) | MNTC (maximum nontoxic concentration) [3]: 0.18 ± 0.03 µg/mL

Cc1cn([C@H]2C[C@H](N=[N+]=[N-])[C@@H](CO)O2)c(=O)[nH]c1=O [AZT, zidovudine]
IC50 [2]: 0.002 µg/mL (≈ 0.00748 µM) | EmaxAV (maximum antiviral effect %) ([2]; mean ± S.E.M): 83.5 ± 0.57% | EmaxAV (maximum antiviral effect %) ([2]; mean ± S.E.M, listed as zidovudine): 83.5%

Cc1ccnc2c1NC(=O)c1cccnc1N2C1CC1 [NVP, nevirapine]
IC50 [2, 12]: 0.24 ± 0.09 µg/mL (≈ 0.901 µM) | EmaxAV (maximum antiviral effect %) ([2]; mean ± S.E.M): 72.53 ± 0.47% | SI (selectivity index) [2]: 3.5 | CC50 (50% cytotoxic concentration) [3]: 0.82 ± 0.0 µg/mL (≈ 3.08 µM) | MNTC (maximum nontoxic concentration) [3]: 0.57 ± 0.0 µg/mL

C[C@H](Cn1cnc2c(N)ncnc21)OCP(=O)(O)O [TDF, tenofovir]
IC50 [2, 12]: 0.04 ± 0.01 µg/mL (≈ 0.139 µM) | EmaxAV (maximum antiviral effect %) ([2]; mean ± S.E.M): 80.55 ± 0.46% | CC50 (50% cytotoxic concentration) [3]: 6.73 ± 0.24 µg/mL (≈ 23.4 µM) | MNTC (maximum nontoxic concentration) [3]: 4.92 ± 0.71 µg/mL

C=C(C)[C@@H]1CC[C@]2(C(=O)O)CC[C@]3(C)[C@H](CC[C@@H]4[C@@]5(C)CC[C@H](O)C(C)(C)[C@@H]5CC[C@]43C)[C@@H]12 [betulinic acid]
anti-HIV activity (in words) [4]: exhibited anti-HIV activity

CC1=CC[C@]2(C)CC(=O)[C@]3(C)C(=O)C=C(C(C)C)[C@@H]3[C@H]2CC1 [cyanthiwigin B]
anti-HIV activity (in words) [5]: Moderate anti-HIV activity

CC1(C)CC[C@]2(C(=O)O)CC[C@]3(C)C(=CC[C@@H]4[C@@]5(C)CC[C@H](O)C(C)(C)[C@@H]5CC[C@]43C)[C@@H]2C1 [oleanolic acid]
anti-HIV activity (in words) [4]: exhibited anti-HIV activity

CC(=O)[C@@H]1CC[C@]2(C(=O)O)CC[C@]3(C)[C@H](CC[C@@H]4[C@@]5(C)CC[C@H](O)C(C)(C)[C@@H]5CC[C@]43C)[C@@H]12 [platanic acid]
anti-HIV activity (in words) [4]: exhibited anti-HIV activity

acetin
anti-HIV activity (in words) [6]: potent anti-HIV activity

furocrotinsulolide
cytotoxicity activity (in words) ([1]; Caco-2 cell line, at 30 μm): modest cytotoxicity activity

maninsigin D
IC50 [7]: > 40 µM | IC50 [8]: > 40 µM | IC50 [9]: > 40 µM | IC50 [10]: > 40 µM | IC50 [11]: > 40 µM

— article PMC8876114, “Cytotoxicity and anti-HIV activities of extracts of the twigs of Croton dichogamus Pax” (BMC Complementary Medicine and Therapies, 2022)
